The source of these data is patent publication US20020082268A1, “Therapeutic compounds for the treatment of asthma and allergy, and methods of use thereof” (priority 2000, published 2002).

The IC50 is the concentration that gives 50% inhibition.

Assay [1] concerns the target T1, Histamine H1-receptor (peripheral) (Cavia porcellus, UniProt P31389).
T1 construct: Aliquots of guinea-pig lung membrane preparations corresponding to 800 μg protein are incubated; from tissue; host or cells: guinea-pig lung membranes
The experiment in a line: Histamine H1-receptor (peripheral) binding assay, [3H]pyrilamine, guinea-pig lung membranes. The settings on record: 1 nM [3H]pyrilamine. The procedure: Histamine H1-receptor (peripheral) binding assays were performed according to the literature procedure (ref: Dini, S., et al, Agents and Actions, 1991, 33:181-184). Aliquots of guinea-pig lung membrane preparations corresponding to 800 μg protein are incubated for 15 min at 22° C. in 500 μl of 50 mM Na2HPO4/KH2PO4 buffer (pH 7.5) containing 1 nM [^3H]pyrilamine and increasing concentrations of the competing drugs. Nonspecific binding is determined in the presence of 100 μM triprolidine. After incubation, the samples are filtered rapidly under vacuum through glass fiber filters (GF/B, Whatman) and rinsed several times with ice-cold 50 mM Na2HPO4/KH2PO4 using a cell harvester (Brandel). Bound radioactivity is measured with a scintillation counter (LS 6000, Beckman) using a liquid scintillation cocktail (Formula 989, Packard).The reference compound for this assay is pyrilamine.
The results are expressed as percent of control specific binding and as a percent inhibition of control specific binding obtained in the presence of the tested compounds. IC50 values (concentration causing a half-maximal inhibition of control activity) and Hill coefficients (nH) are determined by non-linear regression analysis of the concentration-response curves. These parameters are obtained by Hill equation curve fitting.

Assay [2] relates to human differentiated HL-60 cells. Put plainly: LTB4 secretion assay in differentiated HL-60 cells (A23187, EIA). The settings on record: 0.5 h, A23187 5 uM, 37 C, 30 min, read-out: Inhibition of LTB4 secretion: IC50. The format is cell-based. The procedure: The assays were performed using human differentiated HL-60 cells using NDGA as reference compound following the literature procedure (Bennett, C. F. et al, Biochem. J., 1993, 289: 33-39). Substrate A23187 (5 uM) was incubated along with test compound in HL-60 cells at 37 C for 30 min. Reaction product LTB4 was detected by enzymeimmuno assays (EIA) using commercially available kits and a microplate reader.

The target in assay [3] is T2, 5-LO (UniProt P09917).
T2 sequence (P09917 1-674): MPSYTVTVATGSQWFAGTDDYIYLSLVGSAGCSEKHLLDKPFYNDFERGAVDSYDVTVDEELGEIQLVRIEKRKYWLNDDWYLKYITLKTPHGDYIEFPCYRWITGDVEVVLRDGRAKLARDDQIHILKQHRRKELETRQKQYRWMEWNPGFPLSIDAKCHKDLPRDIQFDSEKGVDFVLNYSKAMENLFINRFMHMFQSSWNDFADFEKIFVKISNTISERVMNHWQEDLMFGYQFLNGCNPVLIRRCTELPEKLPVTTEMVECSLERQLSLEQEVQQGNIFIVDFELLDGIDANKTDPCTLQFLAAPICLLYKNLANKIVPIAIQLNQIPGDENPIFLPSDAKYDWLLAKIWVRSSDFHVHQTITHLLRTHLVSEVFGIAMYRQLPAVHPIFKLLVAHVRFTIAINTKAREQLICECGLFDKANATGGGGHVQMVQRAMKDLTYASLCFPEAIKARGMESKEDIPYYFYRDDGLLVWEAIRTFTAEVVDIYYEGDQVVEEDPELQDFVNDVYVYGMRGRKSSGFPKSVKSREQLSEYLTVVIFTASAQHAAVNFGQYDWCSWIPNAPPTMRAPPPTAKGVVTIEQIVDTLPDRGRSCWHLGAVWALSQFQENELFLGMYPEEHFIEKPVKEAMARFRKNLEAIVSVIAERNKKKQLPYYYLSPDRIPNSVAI
The experiment in a line: 5-LO enzyme assay (RIA quantitation of 5-HETE). The format is biochemical. The settings on record: Procedure A (RBL-1 cells) or B (HL-60 cells), not given; read-out: Inhibition of 5-LO: IC50. The protocol: 5-LO enzyme assays (radio-immuno assays (RIA)) were performed according to literature procedures (ref: (a) Egan, R. W., and Gale, P. H., J. Biol. Chem. 1985, 260:11554-11559; (b) Shimizu, T., Rdamark, O., and Samuelsson, B. Proc. Natl. Acad. Sci. USA, 1984, 81:689-693); (c) Coffey, M. et al., J. Biol. Chem. 1992, 267: 570-576) using commercially available kits or reagents.
Tissue/cell sources: Rat basophilic leukemia cells (RBL-1);
Substrate: Arachidonic acid (AA) at 14 μM;
Reaction: AA→5-HPETE→5-HETE, incubation at 25° C. for 8 min;
Method: RIA quantitation of 5-HETE, reference compound NGDA (nordihydroquaiaretic acid).
Tissue/cell sources: Human differentiated HL-60 cells;
Substrate: Arachidonic acid (AA) at 0.4 μM;
Reaction: AA→5-HPETE→5-HETE, incubation at 37° C. for 10 min;
The results are expressed as percent of control activity and as a percent inhibition of control activity obtained in the presence of the tested compounds.
IC50 values (concentration causing a half-maximal inhibition of control activity) and Hill coefficients (nH) are determined by non-linear regression analysis of the concentration-response curves. These parameters are obtained by Hill equation curve fitting.

T1 sequence (P31389 whole entry): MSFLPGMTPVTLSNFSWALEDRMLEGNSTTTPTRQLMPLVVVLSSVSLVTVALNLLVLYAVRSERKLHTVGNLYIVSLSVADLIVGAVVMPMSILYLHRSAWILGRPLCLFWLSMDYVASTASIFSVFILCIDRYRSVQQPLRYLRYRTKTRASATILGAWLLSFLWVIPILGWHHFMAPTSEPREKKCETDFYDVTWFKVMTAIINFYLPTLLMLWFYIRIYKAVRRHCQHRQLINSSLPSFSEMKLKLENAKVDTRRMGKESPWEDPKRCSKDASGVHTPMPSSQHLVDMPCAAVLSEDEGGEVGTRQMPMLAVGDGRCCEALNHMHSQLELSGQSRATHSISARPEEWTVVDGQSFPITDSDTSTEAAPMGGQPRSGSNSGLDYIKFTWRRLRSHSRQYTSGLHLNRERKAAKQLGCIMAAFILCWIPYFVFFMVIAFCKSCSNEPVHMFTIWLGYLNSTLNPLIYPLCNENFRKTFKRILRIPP

With `COc1cccc2c(=O)n(O)c(N3CCC(Nc4nc5ccccc5n4Cc4ccc(F)cc4)CC3)nc12` [Entry 20], the figures for the IC50 in assay [1] and in assay [2] were under 1 µM and over 10 µM, respectively.
For `O=c1c2ccccc2nc(CN2CCC(Nc3nc4ccccc4n3Cc3ccc(F)cc3)CC2)n1O` [Entry 1], the IC50 in assay [1] and in assay [3] was under 1 µM each time.
In the case of `Cc1cccc2nc(N3CCC(Nc4nc5ccccc5n4Cc4ccc(F)cc4)CC3)n(O)c(=O)c12` [Entry 23], the results for the IC50 in assay [1] and in assay [2] were under 1 µM and under 10 µM, respectively.
As for `O=C(O)c1ccc2c(=O)n(O)c(CN3CCC(Nc4nc5ccccc5n4Cc4ccc(F)cc4)CC3)nc2c1` [Entry 2], the figures for the half-maximal inhibitory concentration (IC50) in assay [1] and in assay [3] were under 1 µM and over 10 µM, respectively.
Taken in the same sequence, the figures for `Cc1cccc2c(=O)n(O)c(CN3CCC(=C4c5ccc(Cl)cc5CCc5cccnc54)CC3)nc12` [Entry 4] were under 10 µM and under 10 µM.
The like results for `O=c1c2cc(F)c(F)cc2nc(CN2CCC(Nc3nc4ccccc4n3Cc3ccc(F)cc3)CC2)n1O` [Entry 6] were, in that order, under 1 µM and under 10 µM.
The like results for `O=C(O)c1ccc2nc(N3CCC(Nc4nc5ccccc5n4Cc4ccc(F)cc4)CC3)n(O)c(=O)c2c1` [Entry 10] were, in that order, under 1 µM and over 10 µM.
Take `O=c1c2cc([N+](=O)[O-])ccc2nc(N2CCC(Nc3nc4ccccc4n3Cc3ccc(F)cc3)CC2)n1O` [Entry 24]: the IC50 in assay [1] is under 1 µM; in assay [2], over 10 µM.
In the case of `O=c1c2ccc(F)cc2nc(N2CCC(Nc3nc4ccccc4n3Cc3ccc(F)cc3)CC2)n1O` [Entry 17], the IC50 in assay [1] is under 1 µM; in assay [2] it was under 10 µM.
As for `O=c1c2ccccc2nc(N2CCC(Nc3nc4ccccc4n3Cc3ccc(F)cc3)CC2)n1O` [Entry 12], the figures for the half-inhibitory concentration (IC50) in assay [1], in assay [3] and in assay [2] were under 1 µM, under 10 µM and under 10 µM, respectively.
On to `O=c1c2cc(Br)ccc2nc(N2CCC(Nc3nc4ccccc4n3Cc3ccc(F)cc3)CC2)n1O` [Entry 14], for which the IC50 in assay [1] is under 1 µM; in assay [3], under 10 µM; in assay [2], under 10 µM.
For `O=c1c2c(Cl)cccc2nc(N2CCC(Nc3nc4ccccc4n3Cc3ccc(F)cc3)CC2)n1O` [Entry 22], the IC50 in assay [1] and in assay [2] was under 1 µM throughout.
As to `COc1ccc2nc(CN3CCC(Nc4nc5ccccc5n4Cc4ccc(F)cc4)CC3)n(O)c(=O)c2c1` [Entry 7], the IC50 in assay [1] is under 1 µM; in assay [3] it was under 10 µM.
Take `O=c1c2cc(O)ccc2nc(CN2CCC(Nc3nc4ccccc4n3Cc3ccc(F)cc3)CC2)n1O` [Entry 8]: the IC50 in assay [1] is under 0.1 µM; in assay [3], under 10 µM.
Regarding `O=c1c2ccc(Cl)cc2nc(N2CCC(Nc3nc4ccccc4n3Cc3ccc(F)cc3)CC2)n1O` [Entry 18], the IC50 in assay [1] was under 1 µM; in assay [2] it was under 10 µM.
In the case of `O=C(O)c1ccc2nc(CN3CCC(Nc4nc5ccccc5n4Cc4ccc(F)cc4)CC3)n(O)c(=O)c2c1` [Entry 9], the IC50 in assay [1] is under 0.1 µM; in assay [3] it was over 10 µM.
As to `O=c1c2cc(F)ccc2nc(N2CCC(Nc3nc4ccccc4n3Cc3ccc(F)cc3)CC2)n1O` [Entry 15], the IC50 in assay [1] is under 0.1 µM; in assay [3], under 1 µM; in assay [2], under 10 µM.
Taken in the same sequence, the figures for `O=c1c2cc(Cl)ccc2nc(N2CCC(Nc3nc4ccccc4n3Cc3ccc(F)cc3)CC2)n1O` [Entry 19] were under 1 µM, under 1 µM and under 10 µM.
For `COc1cc2nc(N3CCC(Nc4nc5ccccc5n4Cc4ccc(F)cc4)CC3)n(O)c(=O)c2cc1OC` [Entry 21], the results for the IC50 in assay [1] and in assay [2] were under 1 µM and under 10 µM, respectively.
With `O=C(O)c1ccc2nc(NC3CCN(c4nc5ccccc5n4Cc4ccc(F)cc4)CC3)n(O)c(=O)c2c1` [Entry 11], the IC50 was under 10 µM in assay [1] and over 10 µM in assay [3].
The like results for `O=c1c2cc(F)ccc2nc(CN2CCC(=C3c4ccc(Cl)cc4CCc4cccnc43)CC2)n1O` [Entry 5] were, in that order, under 10 µM and under 10 µM.
For `O=c1c2ccccc2nc(N2CCN(C(c3ccccc3)c3ccc(Cl)cc3)CC2)n1O` (centres unmarked) [Entry 13], the IC50 in assay [1] and in assay [2] was under 10 µM throughout.
As for `O=C(O)c1ccc2c(=O)n(O)c(CN3CCC(=C4c5ccc(Cl)cc5CCc5cccnc54)CC3)nc2c1` [Entry 3], the IC50 was under 1 µM in assay [1] and under 10 µM in assay [3].
Regarding `COc1ccc2nc(N3CCC(Nc4nc5ccccc5n4Cc4ccc(F)cc4)CC3)n(O)c(=O)c2c1` [Entry 16], the IC50 in assay [1] was under 1 µM; in assay [3], under 10 µM; in assay [2] it was under 10 µM.
